The results in this text go back to patent publication US5426103A, “Certain macrocyclic lactam derivatives” (Ciba-Geigy Corporation, priority 1993, dated 1995).

The structures appear in SMILES notation.

For one assay, the system named is plasma ANF. The assay can be described thus: effect on rat plasma ANF concentration in ANF-infused conscious rats. The format is in vivo, rat (male Sprague-Dawley). The note with it: about 1-10 mg/kg p.o., ANF infusion 450 ng/kg/min i.v. The procedure: The effect of the compounds of the invention on rat plasma ANF concentration can be determined as follows:
Male Sprague-Dawley rats (275-390 g) are anesthetized with ketamine (150 mg/kg)/acepromazine (10%) and instrumented with catheters in the femoral artery and vein to obtain blood samples and infuse ANF, respectively. The rats are tethered with a swivel system and are allowed to recover for 24 hours before being studied in the conscious, unrestrained state.
In this assay, plasma ANF levels are determined in the presence and absence of NEP inhibition. On the day of study, all rats are infused continuously with ANF at 450 ng/kg/min. i.v. for the entire 5 hours of the experiment. Sixty minutes after beginning the infusion, blood samples for baseline ANF measurements are obtained (time 0) and the rats are then randomly divided into groups treated with the test compound or vehicle. Additional blood samples are taken 30, 60, 120, 180 and 240 minutes after administration of the test compound.
Plasma concentrations are determined by a specific radioimmunoassay. […] The supermatant is decanted and the pellets counted in a gamma counter. […] Plasma ANF levels are expressed as a percent of those measured in vehicle-treated animals which received ANF alone (450 ng/kg/min i.v.).

The subject of assay [1] is DOCA-salt hypertensive rats. Nature of the assay: antihypertensive effect in DOCA-salt hypertensive rats. Conditions: DOCA-salt hypertensive rat, 30 mg/kg p.o. in 3% corn starch. The format is in vivo. The method, then:
The antihypertensive effect can be determined in desoxycorticosterone acetate (DOCA)-salt hypertensive rats. DOCA-salt hypertensive rats (280-380 g) are prepared by the standard method. Rats underwent a unilateral nephrectomy and one week later are implanted with silastic pellets containing 100 mg/kg of DOCA. The rats are maintained on 1% NaCl/0.2% KCl drinking water for three to five weeks until sustained hypertension is established. The antihypertensive activity is evaluated at this time. Two days before an experiment, the rats are anesthetized with methoxyflurane and instrumented with catheters in the femoral artery to measure arterial blood pressure. Forty-eight hours later, baseline arterial pressure and heart rate are recorded during a 1 hour period. The test compound (30 mg/kg p.o.) or vehicle is then administered and the same cardiovascular parameters are monitored for an additional 5 hours.

In another assay the test system is ANF-induced natriuresis. Nature of the assay: potentiation of the natriuretic effect of ANF in anesthetized rats. Conditions: rat, 30 mg/kg in polyethylene glycol 400, intraduodenally; ANF 1 μg/kg i.v. bolus. It is filed as in vivo, rat (male Sprague-Dawley). The procedure: The potentiation of the natriuretic effect of ANF can be determined as follows: Male Sprague-Dawley rats (280-360 g) are anesthetized with Inactin (100 mg/kg i.p.) and instrumented with catheters in the femoral artery, femoral vein and urinary bladder to measure arterial pressure, administer ANF and collect urine, respectively. A continuous infusion of normal saline (33 μl/min) is maintained throughout the experiment to promote diuresis and sodium excretion. The experimental protocol consists of an initial 15 minute collection period (designated as pre-control) followed by three additional collection periods. Immediately after completion of the pre-control period, test compound or vehicle is administered; nothing is done for the next 45 minutes. […] At the conclusion of this period, ANF is administered (1 μg/kg i.v. bolus) to all animals and arterial pressure and renal parameters are determined during two consecutive 15 minutes collection periods. Mean arterial pressure, urine flow and urinary sodium excretion are determined for all collection periods. Blood pressure is measured with a Gould p50 pressure transducer, urine flow is determined gravimetrically, sodium concentration is measured by flame photometry, and urinary sodium excretion is calculated as the product of urine flow and urine sodium concentration.

`CC(=O)SC[C@H]1CCCCCC[C@H](C(=O)N2C[C@H](O)C[C@H]2C(=O)OCc2ccccc2)NC1=O` [N-[[trans 3-(acetylthiomethyl)-2-oxo-1-azacyclodecan-10-yl]-carbonyl]-trans-4-hydroxy-L-proline benzyl ester]: the “increase in plasma ANF levels” value in the assay with plasma ANF is listed as “significant increases in plasma ANF levels”. For the same compound, the “reduction in blood pressure” value in assay [1] was “significant reduction in blood pressure”. Besides, the “potentiation of ANF-induced natriuresis” value in the assay with ANF-induced natriuresis is listed as “significant potentiation of ANF-induced natriuresis”.
